Values after ≈ are worked out from the molar mass of the structure shown. Active and inactive are the calls of the source. The rule behind the calls is not given here.
Key:
[1] = Metabolic stability in mouse liver microsomes assessed as intrinsic clearance at 1 uM measured upto 60 mins in presence of NADPH by LC-MS/MS analysis; format: ADME, Microsome; conditions: read-out: CLH
[2] = Metabolic stability in mouse liver microsomes assessed as hepatic clearance at 1 uM measured upto 60 mins in presence of NADPH by LC-MS/MS analysis; format: ADME, Microsome; conditions: 1 h
[3] = tested on: Staphylococcus aureus; experiment: Antibacterial activity against Staphylococcus aureus ATCC 29213 incubated for 16 to 18 hrs by CLSI based broth dilution method; format: functional; conditions: time 16-18 hrs
[4] = tested on: Staphylococcus aureus; experiment: Antibacterial activity against methicillin-resistant Staphylococcus aureus ATCC 43300 incubated for 16 to 18 hrs by CLSI based broth dilution method; format: functional; conditions: time 16-18 hrs
[5] = tested on: Staphylococcus epidermidis; experiment: Antibacterial activity against Staphylococcus epidermidis ATCC 12228 incubated for 16 to 18 hrs by CLSI based broth dilution method; format: functional; conditions: time 16-18 hrs
[6] = tested on: Acinetobacter baumannii; experiment: Antibacterial activity against Acinetobacter baumannii ATCC 19606 incubated for 16 to 18 hrs by CLSI based broth dilution method; format: functional; conditions: time 16-18 hrs
[7] = tested on: Enterococcus faecalis; experiment: Antibacterial activity against Enterococcus faecalis ATCC 29212 incubated for 16 to 18 hrs by CLSI based broth dilution method; format: functional; conditions: time 16-18 hrs
[8] = tested on: Escherichia coli; experiment: Antibacterial activity against Escherichia coli ATCC 25922 incubated for 16 to 18 hrs by CLSI based broth dilution method; format: functional; conditions: time 16-18 hrs
[9] = tested on: Staphylococcus aureus; experiment: Antibacterial activity against methicillin-sensitive Staphylococcus aureus 15-1 incubated for 16 to 18 hrs by CLSI based broth dilution method; format: functional; conditions: time 16-18 hrs
[10] = tested on: Staphylococcus aureus; experiment: Antibacterial activity against methicillin-sensitive Staphylococcus aureus 15-2 incubated for 16 to 18 hrs by CLSI based broth dilution method; format: functional; conditions: time 16-18 hrs
[11] = tested on: Staphylococcus aureus; experiment: Antibacterial activity against methicillin-sensitive Staphylococcus aureus ATCC 29213 incubated for 16 to 18 hrs by CLSI based broth dilution method; format: functional; conditions: time 16-18 hrs
[12] = tested on: Staphylococcus aureus; experiment: Antibacterial activity against methicillin-sensitive Staphylococcus aureus ATCC 25923 incubated for 16 to 18 hrs by CLSI based broth dilution method; format: functional; conditions: time 16-18 hrs
[13] = tested on: Staphylococcus aureus; experiment: Antibacterial activity against methicillin-resistant Staphylococcus aureus ATCC 33591 incubated for 16 to 18 hrs by CLSI based broth dilution method; format: functional; conditions: time 16-18 hrs
[14] = tested on: Staphylococcus aureus; experiment: Antibacterial activity against vancomycin intermediate Staphylococcus aureus ATCC 700788 incubated for 16 to 18 hrs by CLSI based broth dilution method; format: functional; conditions: time 16-18 hrs
[15] = tested on: Staphylococcus aureus; experiment: Antibacterial activity against vancomycin intermediate Staphylococcus aureus ATCC 700699 incubated for 16 to 18 hrs by CLSI based broth dilution method; format: functional; conditions: time 16-18 hrs
[16] = tested on: Enterococcus faecalis; experiment: Antibacterial activity against Enterococcus faecalis EFA19-1 incubated for 16 to 18 hrs by CLSI based broth dilution method; format: functional; conditions: time 16-18 hrs
[17] = tested on: Enterococcus faecalis; experiment: Antibacterial activity against Enterococcus faecalis EFA19-2 incubated for 16 to 18 hrs by CLSI based broth dilution method; format: functional; conditions: time 16-18 hrs
[18] = tested on: Enterococcus; experiment: Antibacterial activity against Vancomycin-resistant Enterococcus ATCC 51575 incubated for 16 to 18 hrs by CLSI based broth dilution method; format: functional; conditions: time 16-18 hrs
[19] = tested on: Escherichia coli; experiment: Antibacterial activity against Escherichia coli ATCC BAA-2340 incubated for 16 to 18 hrs by CLSI based broth dilution method; format: functional; conditions: time 16-18 hrs
[20] = tested on: Escherichia coli; experiment: Antibacterial activity against Escherichia coli ECO 15-1 incubated for 16 to 18 hrs by CLSI based broth dilution method; format: functional; conditions: time 16-18 hrs
[21] = tested on: Klebsiella pneumoniae; experiment: Antibacterial activity against Klebsiella pneumoniae 15-1 assessed as reduction in microbial growth incubated for 16 to 18 hrs by CLSI based broth dilution method; format: functional; conditions: time 16-18 hrs
[22] = tested on: Klebsiella pneumoniae; experiment: Antibacterial activity against Klebsiella pneumoniae ATCC 700603 assessed as reduction in microbial growth incubated for 16 to 18 hrs by CLSI based broth dilution method; format: functional; conditions: time 16-18 hrs
[23] = tested on: Acinetobacter baumannii; experiment: Antibacterial activity against Acinetobacter baumannii ATCC 19606 assessed as reduction in microbial growth incubated for 16 to 18 hrs by CLSI based broth dilution method; format: functional; conditions: time 16-18 hrs
[24] = tested on: Acinetobacter baumannii; experiment: Antibacterial activity against Acinetobacter baumannii 20-1 incubated for 16 to 18 hrs by CLSI based broth dilution method; format: functional; conditions: time 16-18 hrs
[25] = tested on: Acinetobacter baumannii; experiment: Antibacterial activity against Acinetobacter baumannii 20-2 incubated for 16 to 18 hrs by CLSI based broth dilution method; format: functional; conditions: time 16-18 hrs
[26] = tested on: Pseudomonas aeruginosa; experiment: Antibacterial activity against Pseudomonas aeruginosa ATCC 27853 incubated for 16 to 18 hrs by CLSI based broth dilution method; format: functional; conditions: time 16-18 hrs
[27] = tested on: Staphylococcus aureus; experiment: Antibacterial activity against Staphylococcus aureus ATCC 29213 incubated for 16 to 18 hrs in absence of human plasma by CLSI based broth dilution method; format: functional; conditions: time 16-18 hrs
[28] = tested on: Staphylococcus aureus; experiment: Antibacterial activity against Staphylococcus aureus ATCC 29213 incubated for 16 to 18 hrs in presence of human plasma by CLSI based broth dilution method; format: functional; conditions: time 16-18 hrs
[29] = tested on: Staphylococcus aureus; experiment: Antibacterial activity against methicillin-resistant Staphylococcus aureus ATCC 43300 incubated for 16 to 18 hrs in absence of human plasma by CLSI based broth dilution method; format: functional; conditions: time 16-18 hrs
[30] = tested on: Staphylococcus aureus; experiment: Antibacterial activity against methicillin-resistant Staphylococcus aureus ATCC 43300 incubated for 16 to 18 hrs in presence of human plasma by CLSI based broth dilution method; format: functional; conditions: time 16-18 hrs
[31] = tested on: Escherichia coli; experiment: Antibacterial activity against Escherichia coli ATCC 25922 incubated for 16 to 18 hrs in absence of human plasma by CLSI based broth dilution method; format: functional; conditions: time 16-18 hrs
[32] = tested on: Escherichia coli; experiment: Antibacterial activity against Escherichia coli ATCC 25922 incubated for 16 to 18 hrs in presence of human plasma by CLSI based broth dilution method; format: functional; conditions: time 16-18 hrs
[33] = Toxicity in ICR mouse assessed as median lethal dose administered as single IP dose measured upto 8 days; conditions: in vivo, time < 8 day
[34] = tested on: Staphylococcus aureus; experiment: Antibacterial activity against Methicillin-resistant Staphylococcus aureus ATCC 43300 infected in ip dosed ICR mouse thigh infection model assessed as reduction in bacterial growth measured after 24 hrs post-treatment; format: functional, organism-based; conditions: dose lower 7.5 mg/kg, dose upper […]
[35] = tested on: Escherichia coli; experiment: Antibacterial activity against Escherichia coli ATCC 25922 assessed as inhibition of bacterial growth at upto 8 times MIC measured upto 28 hrs by time kill curve assay; format: functional, organism-based
[36] = tested on: Staphylococcus aureus; experiment: Antibacterial activity against methicillin-resistant Staphylococcus aureus ATCC 43300 assessed as inhibition of bacterial growth at upto 8 times MIC measured upto 28 hrs by time kill curve assay; format: functional, organism-based
[37] = tested on: Staphylococcus aureus; experiment: Drug resistance against methicillin-resistant Staphylococcus aureus ATCC 43300 assessed as increase in MIC measured after 10 passaging for 24 hrs; format: functional, organism-based
[38] = tested on: MCF7; experiment: Cytotoxicity against human MCF7 cells measured after 72 hrs by MTT assay; format: functional, cell-based; conditions: MCF7, 72 h
[39] = tested on: HGC-27; experiment: Cytotoxicity against human HGC-27 cells measured after 72 hrs by MTT assay; format: functional, cell-based; conditions: HGC-27, 72 h
[40] = tested on: HCT-116; experiment: Cytotoxicity against human HCT-116 cells measured after 72 hrs by MTT assay; format: functional, cell-based; conditions: HCT-116, 72 h
[41] = tested on: HepG2; experiment: Cytotoxicity against human HepG2 cells measured after 72 hrs by MTT assay; format: functional, cell-based; conditions: HepG2, 72 h
[42] = Toxicity in ip dosed ICR mouse assessed as animal death at high dose measured upto 8 days; format: organism-based; conditions: in vivo, 192 h, time < 8 day
[43] = target: T1, Dihydrofolate reductase (Homo sapiens) (UniProt P00374); experiment: Inhibition of human DHFR at 1 uM incubated for 10 mins in presence of NADPH by colorimetry based analysis relative to control
T1 sequence (whole entry): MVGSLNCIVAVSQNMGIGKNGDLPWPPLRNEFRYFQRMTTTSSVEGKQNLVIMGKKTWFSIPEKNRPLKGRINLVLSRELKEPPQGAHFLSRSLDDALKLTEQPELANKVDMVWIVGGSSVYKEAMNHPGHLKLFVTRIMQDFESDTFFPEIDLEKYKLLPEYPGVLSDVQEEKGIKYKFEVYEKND

Compound | MIC [3] | MIC [4] | MIC [5] | MIC [6] | MIC [7] | MIC [8] | MIC [9] | MIC [10] | MIC [11] | MIC [12] | MIC [13] | MIC [14] | MIC [15] | MIC [16] | MIC [17] | MIC [18] | MIC [19] | MIC [20] | MIC [21] | MIC [22] | also measured
COc1ccc2c(c1)[C@]13CCCC[C@@H]1[C@H](C2)N(C)CC3 [DEXTROMETHORPHAN] | – | – | – | – | – | – | – | – | – | – | – | – | – | – | – | – | – | – | – | – | microsomal CLint at 1 µM [1]: 135 µL/min/mg; CLH [2]: 77 mL/min/kg
COc1cc(Cc2cnc(N)nc2N)cc(OC)c1OC [TRIMETHOPRIM] | 1 µg/mL (≈ 3.44 µM) | 0.5 µg/mL (≈ 1.72 µM) | ≤ 0.004 µg/mL | 16 µg/mL (≈ 55.1 µM) | 0.5 µg/mL (≈ 1.72 µM) | 0.5 µg/mL (≈ 1.72 µM) | 0.5 µg/mL (≈ 1.72 µM) | 0.25 µg/mL (≈ 0.861 µM) | 1 µg/mL (≈ 3.44 µM) | 1 µg/mL (≈ 3.44 µM) | 1 µg/mL (≈ 3.44 µM) | 0.5 µg/mL (≈ 1.72 µM) | 1 µg/mL (≈ 3.44 µM) | 0.25 µg/mL (≈ 0.861 µM) | 0.5 µg/mL (≈ 1.72 µM) | ≤ 0.03 µg/mL | 64 µg/mL (≈ 220 µM) | > 64 µg/mL | 8 µg/mL | 4 µg/mL | MIC [23]: 16 µg/mL; MIC [24]: > 64 µg/mL; MIC [25]: 16 µg/mL (≈ 55.1 µM); MIC [26]: > 64 µg/mL; MIC [27]: 1 µg/mL (≈ 3.44 µM); MIC [28]: 1 µg/mL; MIC [29]: 0.5 µg/mL (≈ 1.72 µM); MIC [30]: 0.5 µg/mL; MIC [31]: 0.5 µg/mL (≈ 1.72 µM); MIC [32]: 0.5 µg/mL; LD50 at 192 h [33]: > 800 mg/kg; Activity [34]: Active
Nc1nc(N)c2c(ccc3c2ccn3Cc2cccc3scnc23)n1 | 0.008 µg/mL (≈ 0.0231 µM) | 0.004 µg/mL (≈ 0.0115 µM) | ≤ 0.004 µg/mL | 0.5 µg/mL (≈ 1.44 µM) | ≤ 0.004 µg/mL | 0.03 µg/mL (≈ 0.0866 µM) | – | – | – | – | – | – | – | – | – | – | – | – | – | – | Activity [35]: Active; Activity [36]: Active; MIC [27]: 0.008 µg/mL (≈ 0.0231 µM); MIC [28]: 0.25 µg/mL; MIC [29]: ≤ 0.004 µg/mL; MIC [30]: 0.25 µg/mL; MIC [31]: 0.03 µg/mL (≈ 0.0866 µM); MIC [32]: 0.25 µg/mL; Activity [37]: Active; IC50 [38]: 110 nM; IC50 [39]: 11 nM; IC50 [40]: 32 nM; IC50 [41]: 170 nM; LD50 at 192 h [33]: 88.9 mg/kg; Activity [42]: Toxic
Nc1nc(N)c2c(ccc3c2ccn3Cc2cccc3cccnc23)n1 | 0.25 µg/mL (≈ 0.734 µM) | ≤ 0.03 µg/mL | 1 µg/mL (≈ 2.94 µM) | 2 µg/mL (≈ 5.88 µM) | 0.06 µg/mL (≈ 0.176 µM) | 0.5 µg/mL (≈ 1.47 µM) | ≤ 0.03 µg/mL | ≤ 0.03 µg/mL | ≤ 0.03 µg/mL | ≤ 0.03 µg/mL | ≤ 0.03 µg/mL | ≤ 0.03 µg/mL | 0.06 µg/mL (≈ 0.176 µM) | ≤ 0.03 µg/mL | ≤ 0.03 µg/mL | ≤ 0.03 µg/mL | > 64 µg/mL | > 64 µg/mL | 16 µg/mL | 16 µg/mL | MIC [23]: 2 µg/mL; MIC [24]: 64 µg/mL (≈ 188 µM); MIC [25]: 2 µg/mL (≈ 5.88 µM); MIC [26]: > 64 µg/mL; inhibition [43]: 38.7%; IC50 [38]: 1450 nM; IC50 [39]: 1710 nM; IC50 [40]: > 10000 nM; IC50 [41]: 1220 nM
